Measured values: paper PMC6864136 (Saudi Journal of Biological Sciences, 2018)
≈ marks a conversion by molar mass, not a printed value. Where “and” joins values, the source holds several entries; their conditions need not be identical. Identical values can stand only once. Like-named read-outs stand apart in the source and are kept apart here.

Legend:
electric-eel AChE = electric-eel AChE (Electrophorus electricus, UniProt O42275); assay: In vitro acetylcholinesterase inhibition; type: biochemical
[1] = system: Spodoptera frugiperda larvae; assay: whole plant or invertebrate; type: in vivo; conditions: for EC50: Spodoptera frugiperda, in Zea mays, read-out: Antifeedant activity CE50 (µg/mL), S. frugiperda larvae, no-choice; for EC50 / Antifeedant activity CE50 (µg/mL) / Antifeedant activity CE50: 95% confidence limits in parentheses; for Antifeedant activity CE50 (µg/mL) / Antifeedant activity CE50: S. frugiperda larvae, no-choice
[2] = system: Spodoptera frugiperda larvae; type: in vivo
Artemia salina larvae = assay: Brine shrimp lethality; conditions: A. salina nauplii; 95% confidence limits in parentheses
[3] = S. frugiperda larvae, topical application, 95% confidence limits in parentheses

Chain of electric-eel AChE (O42275 24-633): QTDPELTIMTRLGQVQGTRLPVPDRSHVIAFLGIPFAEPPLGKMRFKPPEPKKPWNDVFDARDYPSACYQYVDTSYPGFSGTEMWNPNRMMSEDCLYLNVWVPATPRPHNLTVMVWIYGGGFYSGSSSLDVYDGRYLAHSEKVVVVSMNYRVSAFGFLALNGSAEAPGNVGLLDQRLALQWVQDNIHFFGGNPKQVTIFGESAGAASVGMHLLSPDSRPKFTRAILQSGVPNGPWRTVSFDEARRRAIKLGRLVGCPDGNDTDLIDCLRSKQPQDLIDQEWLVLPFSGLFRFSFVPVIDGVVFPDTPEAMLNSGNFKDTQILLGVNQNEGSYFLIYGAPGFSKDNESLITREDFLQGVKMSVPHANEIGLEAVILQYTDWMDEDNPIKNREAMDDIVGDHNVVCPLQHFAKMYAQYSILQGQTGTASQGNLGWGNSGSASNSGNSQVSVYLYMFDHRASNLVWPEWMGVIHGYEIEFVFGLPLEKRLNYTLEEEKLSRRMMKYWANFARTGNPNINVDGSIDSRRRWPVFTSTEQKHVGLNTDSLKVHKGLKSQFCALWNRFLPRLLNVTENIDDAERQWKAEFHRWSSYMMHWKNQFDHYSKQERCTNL

Compound | IC50 (electric-eel AChE) [µM] | EC50 [1] [µg/mL] | Antifeedant index (% AI) ([1]; concentration 50 µg/mL) [%] | Antifeedant index (% AI) ([1]; concentration 100 µg/mL) [%] | Antifeedant index (% AI) ([1]; concentration 250 µg/mL) [%] | Antifeedant index (% AI) ([1]; concentration 500 µg/mL) [%] | Antifeedant index (% AI) ([1]; concentration 1000 µg/mL) [%] | Insecticidal activity LD50 (mg/g of insect) [2, 3] | Antifeedant activity CE50 (µg/mL) [1] | Antifeedant index (% AI) ([1]; concentration 25 µg/mL) [%] | LC50 (µg/mL), toxicity in Artemia salina larvae test (Artemia salina larvae) | Antifeedant activity CE50 [1] | Insecticidal activity LD50 (mg/g of insect) ([2]; in vivo)
CC=Cc1ccc(OC(=O)c2ccc([N+](=O)[O-])cc2)c(OC)c1 [Compound 12, O-(4-nitrobenzoyl)isoeugenol] | 228 | 388 (≈ 1240 µM) | 14.4 | 30.2 | 41.5 | 52.8 | 66.9 | – | – | – | – | – | –
CCCc1ccc(O)c(OC)c1 [Compound 13, 2-methoxy-4-propylphenol] | 132 ± 2.77 | 319 (≈ 1920 µM) | 11.7 | 26.7 | 38.6 | 65.0 | 72.9 | 2.02 (1.87–2.17) mg/g of insect | – | – | – | – | –
CC1(C)C(C=C(Cl)Cl)C1C(=O)OC(C#N)c1cccc(Oc2ccccc2)c1 (centres unmarked) [Cypermethrin, cypermethrin, reference compound] | – | 23.9 (≈ 57.3 µM) | 56.0 | 61.0 | 66.5 | 72.7 | 77.9 | – | 23.83 (22.55–25.15) µg/mL | 49.2 | 404.2 (383.2–425.2) µg/mL | – | –
C/C=C/c1ccc(OC)c(OC)c1 [Compound 9, O-methylisoeugenol] | 151 | 536 (≈ 3010 µM) | 20.5 | 33.2 | 40.1 | 47.3 | 58.5 | – | – | – | – | – | –
C=CCc1ccc(O)c(OC)c1 [Compound 1, Eugenol] | 180 | 188 (≈ 1140 µM) | 32.3 | 44.9 | 55.3 | 62.8 | 75.0 | – | 187.7 (176.6–198.9) µg/mL | 13.5 | – | < 210 µg/mL | –
CNC(=O)ON=C(C)SC [Methomyl, methomyl, reference compound] | 1.91 | – | – | – | – | – | – | 0.31 (0.29–0.33) mg/g of insect | – | – | 205.2 (184.9–225.5) µg/mL | – | –
C=CCc1ccc(OC)c(OC)c1 [Compound 2, O-methyleugenol] | 157 | 504 (≈ 2830 µM) | – | – | – | – | – | – | – | – | – | – | –
C=CCc1ccc(OC(C)=O)c(OC)c1 [Compound 6, acetyleugenol] | 184 | – | 17.8 | 26.7 | 36.6 | 44.4 | 55.3 | – | – | – | – | – | 2.02 (1.87–2.14) mg/g of insect
Isoeugenol [Compound 8] | – | – | 37.3 | 45.6 | 56.6 | 65.9 | 78.5 | – | 158.5 (149.3–167.8) µg/mL | 15.6 | – | 158.51 µg/mL and < 210 µg/mL | –
C=CCc1ccc(OC(=O)c2ccc([N+](=O)[O-])cc2)c(OC)c1 [Compound 7, O-(4-nitrobenzoyl)eugenol] | 314 | 724 (≈ 2310 µM) | 23.8 | 31.6 | 39.4 | 45.1 | 55.0 | – | – | – | – | – | –
COc1cc(C2OCOCC2C)ccc1O (centres unmarked) [Compound 14, 2-methoxy-4-(5-methyl-1,3-dioxan-4-yl)-phenol] | 168 | 1800 (≈ 8010 µM) | – | 10.5 | 20.0 | 33.2 | 41.9 | – | – | – | – | – | –
